Test results reported in US11214803B2, “Modulators of YAP1 expression” (Ionis Pharmaceuticals, Inc., priority 2019, dated 2022).
Strand notation (5' to 3'): a small letter for the sugar, then the base; units joined by * are phosphorothioate-linked, units joined directly phosphodiester-linked; [ ] holds rarer units or linkages, { } end groups; capitals alone tell only the bases. k = constrained ethyl (cEt); [5mC] = 5-methylcytosine; d = 2'-deoxy (DNA)

Each substance was assayed on Yap1 mRNA (assay: Antisense inhibition of human Yap1 in A-431 cells by cEt gapmers, single dose (Example 4, RTS4814)). Conditions: Table 14; A-431 cells, 5,000 cells per well, free uptake, 2,000 nM, approximately 48 hours; RTS4814; normalized to RIBOGREEN; Yap1 mRNA relative to untreated control; * = targets amplicon region of primer probe set.
Format: cell-based
Procedure, shortened: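 Values are % UTC: Yap1 mRNA by quantitative RT-PCR, normalized to RIBOGREEN total RNA. Cells were exposed ~48 h to 2,000 nM oligonucleotide without transfection. Oligonucleotides were 16-nucleoside gapmers with three cEt nucleosides per wing, ten-deoxy gap, P=S linkages throughout.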
“1076000 (k[5mC]*k[5mC]*kT*dA*dA*dT*dA*dT*dG*dA*d[5mC]*dT*d[5mC]*k[5mC]*kT*kT; antisense) [Compound 1076000]” was tested, and the “YAP1 (% UTC)” value was 4 % UTC. For “1076032 (kT*kA*kT*dA*dA*dT*dT*dT*d[5mC]*d[5mC]*d[5mC]*dT*dG*kA*kT*k[5mC]; antisense) [Compound 1076032]”, the “YAP1 (% UTC)” value was 105 % UTC. In the case of “1076064 (kT*kA*kT*dG*dA*dA*d[5mC]*dA*dA*dT*dG*dT*dA*k[5mC]*kT*k[5mC]; antisense) [Compound 1076064]”, the “YAP1 (% UTC)” value is reported as 5 % UTC. In the case of “1076096 (kA*kA*kT*dA*dA*dT*dA*dA*dA*d[5mC]*dG*dA*dT*kT*k[5mC]*kT; antisense) [Compound 1076096]”, the “YAP1 (% UTC)” value is reported as 71 % UTC. For “1076128 (kT*k[5mC]*kT*dA*dA*dA*d[5mC]*d[5mC]*dT*dA*dA*dA*dG*kA*k[5mC]*kT; antisense) [Compound 1076128]”, the “YAP1 (% UTC)” value was 118 % UTC. “1076160 (kT*kT*kA*dT*dA*d[5mC]*dT*dA*dG*dT*dA*d[5mC]*dG*kG*k[5mC]*kA; antisense) [Compound 1076160]” was tested, and the “YAP1 (% UTC)” value was 20 % UTC. With “1076192 (k[5mC]*kT*kA*d[5mC]*dA*dA*d[5mC]*d[5mC]*dT*dG*dG*dA*d[5mC]*kT*kT*kT; antisense) [Compound 1076192]” the “YAP1 (% UTC)” value was 34 % UTC. In the case of “1076224 (kT*kA*kT*dA*dA*dA*d[5mC]*d[5mC]*dT*dT*dG*d[5mC]*dT*kA*k[5mC]*kA; antisense) [Compound 1076224]”, the “YAP1 (% UTC)” value is reported as 67 % UTC. For “1076256 (kT*kT*kA*dT*dT*dT*dA*dG*dG*d[5mC]*d[5mC]*d[5mC]*d[5mC]*kA*kT*kA; antisense) [Compound 1076256]”, the “YAP1 (% UTC)” value was 4 % UTC.

Same assay, conditions: Table 15; A-431 cells, 5,000 cells per well, free uptake, 2,000 nM, approximately 48 hours; RTS4814; normalized to RIBOGREEN; Yap1 mRNA relative to untreated control; * = targets amplicon region of primer probe set
“1076001 (kA*k[5mC]*kT*d[5mC]*dA*dA*dG*dG*dA*dA*d[5mC]*d[5mC]*dA*kT*kT*kT; antisense) [Compound 1076001]” was tested, and the “YAP1 (% UTC)” value was 24 % UTC. In the case of “1076033 (k[5mC]*kA*kT*dT*dA*dG*dT*dA*dG*dG*dT*dA*dT*kT*kT*k[5mC]; antisense) [Compound 1076033]”, the “YAP1 (% UTC)” value is reported as 8 % UTC. In the case of “1076065 (k[5mC]*kT*kT*dT*dA*dG*dT*dA*dA*d[5mC]*dA*d[5mC]*dG*kA*kA*kT; antisense) [Compound 1076065]”, the “YAP1 (% UTC)” value is reported as 36 % UTC. With “1076097 (k[5mC]*kA*kA*dT*dA*dA*dT*dA*dA*dA*d[5mC]*dG*dA*kT*kT*k[5mC]; antisense) [Compound 1076097]” the “YAP1 (% UTC)” value was 70 % UTC. With “1076129 (k[5mC]*kA*kT*dA*dA*dA*d[5mC]*d[5mC]*dT*dT*dA*dG*dT*k[5mC]*k[5mC]*kT; antisense) [Compound 1076129]” the “YAP1 (% UTC)” value was 26 % UTC. With “1076161 (kT*k[5mC]*kT*dT*dA*dT*dA*d[5mC]*dT*dA*dG*dT*dA*k[5mC]*kG*kG; antisense) [Compound 1076161]” the “YAP1 (% UTC)” value was 14 % UTC. With “1076193 (kT*kT*kA*dA*dT*dA*d[5mC]*dA*d[5mC]*dA*dG*dG*dT*kT*k[5mC]*k[5mC]; antisense) [Compound 1076193]” the “YAP1 (% UTC)” value was 29 % UTC. “1076225 (kA*kT*kA*dT*dA*dA*dA*d[5mC]*d[5mC]*dT*dT*dG*d[5mC]*kT*kA*k[5mC]; antisense) [Compound 1076225]” was tested, and the “YAP1 (% UTC)” value was 66 % UTC.

Same assay, conditions: Table 16; A-431 cells, 5,000 cells per well, free uptake, 2,000 nM, approximately 48 hours; RTS4814; normalized to RIBOGREEN; Yap1 mRNA relative to untreated control cells
For “1076002 (kA*kT*kT*dT*dA*dA*dT*dG*dG*d[5mC]*dT*dT*dG*k[5mC]*kA*kT; antisense) [Compound 1076002]”, the “YAP1 (% UTC)” value was 21 % UTC. With “1076034 (kA*kA*kT*dT*dA*dG*dA*dA*dA*d[5mC]*dT*dT*dG*kG*k[5mC]*k[5mC]; antisense) [Compound 1076034]” the “YAP1 (% UTC)” value was 74 % UTC. With “1076066 (k[5mC]*kA*kT*dA*dT*dA*dA*dG*dA*dT*dG*dT*dT*kT*kG*k[5mC]; antisense) [Compound 1076066]” the “YAP1 (% UTC)” value was 8 % UTC. In the case of “1076098 (kT*kT*kA*d[5mC]*dA*dA*dT*dA*dA*dT*dA*dA*dA*k[5mC]*kG*kA; antisense) [Compound 1076098]”, the “YAP1 (% UTC)” value is reported as 94 % UTC. In the case of “1076130 (k[5mC]*kT*kG*dG*dA*dA*dT*dA*dG*dT*dG*dG*dG*kT*kG*k[5mC]; antisense) [Compound 1076130]”, the “YAP1 (% UTC)” value is reported as 34 % UTC. In the case of “1076162 (kA*kT*kT*dT*dA*d[5mC]*dT*dT*dG*dG*d[5mC]*dA*dA*k[5mC]*kT*k[5mC]; antisense) [Compound 1076162]”, the “YAP1 (% UTC)” value is reported as 9 % UTC. For “1076194 (kT*kT*kT*dA*dA*dT*dA*d[5mC]*dA*d[5mC]*dA*dG*dG*kT*kT*k[5mC]; antisense) [Compound 1076194]”, the “YAP1 (% UTC)” value was 22 % UTC. With “1076226 (k[5mC]*kA*kT*dA*dT*dA*dA*dA*d[5mC]*d[5mC]*dT*dT*dG*k[5mC]*kT*kA; antisense) [Compound 1076226]” the “YAP1 (% UTC)” value was 36 % UTC.

Same assay, conditions: Table 17; A-431 cells, 5,000 cells per well, free uptake, 2,000 nM, approximately 48 hours; RTS4814; normalized to RIBOGREEN; Yap1 mRNA relative to untreated control cells
“1075971 (kT*kA*kT*dT*dA*dA*d[5mC]*dA*dT*dA*d[5mC]*d[5mC]*dT*k[5mC]*kA*kT; antisense) [Compound 1075971]” was tested, and the “YAP1 (% UTC)” value was 28 % UTC. “1076003 (kA*kA*kT*dT*dT*dA*dA*dT*dG*dG*d[5mC]*dT*dT*kG*k[5mC]*kA; antisense) [Compound 1076003]” was tested, and the “YAP1 (% UTC)” value was 8 % UTC. With “1076035 (kG*kT*kA*dA*dT*dT*dA*dG*dA*dA*dA*d[5mC]*dT*kT*kG*kG; antisense) [Compound 1076035]” the “YAP1 (% UTC)” value was 9 % UTC. “1076067 (kG*k[5mC]*kA*dT*dA*dT*dA*dA*dG*dA*dT*dG*dT*kT*kT*kG; antisense) [Compound 1076067]” was tested, and the “YAP1 (% UTC)” value was 4 % UTC. With “1076099 (k[5mC]*k[5mC]*kT*d[5mC]*dA*dA*dA*dA*d[5mC]*dT*dT*dG*dG*kA*kT*kT; antisense) [Compound 1076099]” the “YAP1 (% UTC)” value was 41 % UTC. In the case of “1076131 (kT*kA*kT*dT*dA*dT*dG*dA*dG*dG*dA*d[5mC]*dT*kG*kA*kT; antisense) [Compound 1076131]”, the “YAP1 (% UTC)” value is reported as 23 % UTC. In the case of “1076163 (kG*kA*kT*dA*dT*dA*dA*dG*dT*dT*dA*d[5mC]*d[5mC]*kA*kA*kT; antisense) [Compound 1076163]”, the “YAP1 (% UTC)” value is reported as 16 % UTC. “1076195 (kA*kA*kT*dA*dA*d[5mC]*dA*dT*dG*dG*dT*dT*d[5mC]*kT*kG*kT; antisense) [Compound 1076195]” was tested, and the “YAP1 (% UTC)” value was 20 % UTC. “1076227 (kA*k[5mC]*kT*dT*dA*dT*dA*dA*dG*dG*d[5mC]*d[5mC]*dA*kG*k[5mC]*kA; antisense) [Compound 1076227]” was tested, and the “YAP1 (% UTC)” value was 16 % UTC.

Same assay, conditions: Yap1 mRNA remaining as percent of untreated control; 3-10-3 cEt gapmers; A-431 cells; Table 36
For “1076054 (k[5mC]*kA*kT*dT*dA*dG*dA*d[5mC]*dT*dT*dT*d[5mC]*dT*kG*kT*k[5mC]; antisense) [compound 1076054]”, the “YAP1 (% UTC)” value was 21 % UTC. In the case of “1076086 (kA*kA*k[5mC]*dT*dA*dA*dT*dA*dG*dG*d[5mC]*d[5mC]*dA*kT*k[5mC]*kT; antisense) [compound 1076086]”, the “YAP1 (% UTC)” value is reported as 31 % UTC. In the case of “1076118 (k[5mC]*kG*kT*dA*dA*dA*dT*dT*dG*dA*dG*dG*d[5mC]*k[5mC]*k[5mC]*kA; antisense) [compound 1076118]”, the “YAP1 (% UTC)” value is reported as 45 % UTC. With “1076150 (kA*kT*kT*dT*dA*dT*dT*dA*dA*d[5mC]*dT*d[5mC]*dA*k[5mC]*kG*kA; antisense) [compound 1076150]” the “YAP1 (% UTC)” value was 11 % UTC. For “1076182 (k[5mC]*kT*kA*dT*dA*dA*dT*dT*dA*dG*d[5mC]*d[5mC]*dA*kA*k[5mC]*k[5mC]; antisense) [compound 1076182]”, the “YAP1 (% UTC)” value was 15 % UTC. In the case of “1076214 (kA*kT*k[5mC]*d[5mC]*dT*dA*dT*dA*d[5mC]*dA*dT*dT*dA*kA*kG*kA; antisense) [compound 1076214]”, the “YAP1 (% UTC)” value is reported as 67 % UTC. With “1076246 (kT*k[5mC]*k[5mC]*dT*dA*dA*dA*dA*dA*dA*d[5mC]*dT*dA*kG*kT*kG; antisense) [compound 1076246]” the “YAP1 (% UTC)” value was 75 % UTC.

Same assay, conditions: Yap1 mRNA remaining as percent of untreated control; 3-10-3 cEt gapmers; A-431 cells; Table 37
For “1075991 (kA*kT*kA*dT*dA*dG*dG*dA*d[5mC]*d[5mC]*dA*d[5mC]*dG*kA*k[5mC]*kT; antisense) [compound 1075991]”, the “YAP1 (% UTC)” value was 62 % UTC. “1076055 (kA*kA*kT*dT*dA*d[5mC]*dT*dA*dA*d[5mC]*dA*dA*dT*k[5mC]*kT*k[5mC]; antisense) [compound 1076055]” was tested, and the “YAP1 (% UTC)” value was 45 % UTC. With “1076087 (k[5mC]*kA*kA*dA*d[5mC]*dT*dA*dA*dT*dA*dG*dG*d[5mC]*k[5mC]*kA*kT; antisense) [compound 1076087]” the “YAP1 (% UTC)” value was 10 % UTC. With “1076151 (kT*kA*kT*dT*dT*dA*dT*dT*dA*dA*d[5mC]*dT*d[5mC]*kA*k[5mC]*kG; antisense) [compound 1076151]” the “YAP1 (% UTC)” value was 14 % UTC. “1076215 (kT*kT*kA*dT*dA*dA*d[5mC]*dA*dG*dA*d[5mC]*dT*dG*kG*k[5mC]*kT; antisense) [compound 1076215]” was tested, and the “YAP1 (% UTC)” value was 47 % UTC. In the case of “1076247 (kG*kA*k[5mC]*d[5mC]*dA*dA*dA*dA*d[5mC]*dA*dG*d[5mC]*dT*k[5mC]*kT*kT; antisense) [compound 1076247]”, the “YAP1 (% UTC)” value is reported as 11 % UTC.
